How the values were obtained:
ABCA1 protein = assay: Detection of upregulation of ABCA1 protein in cells (ApoA-I binding, high content image analysis); format: cell-based; conditions: THP-1 macrophage cells; for EC50: ABCA1 protein increasing efficacy; for % increase of ABCA1 at 3 μM: 24 hrs with compound
Method in brief: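 THP-1 cells differentiated with 100 nM PMA for 68 hrs, loaded with 25 μg/ml acetylated LDL for 24 hours, then exposed to compound (0.5% DMSO) for 24 hrs. Surface ABCA1 measured by binding of AlexaFluor 647-labeled human ApoA-I (20 nM, 2 h, 37 °C) with confocal high-content imaging; EC50 from one-site dose-response fit.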

human CB1 receptor = target: T1, human CB1 receptor (Homo sapiens, UniProt P21554); assay: CB1 receptor affinity ([3H]-CP-55,940 displacement, HEK cell membranes); format: binding; conditions: displacement of radioligand [3H]-CP-55,940
T1 construct: expressed in transfected cells; host or cells: human embryonic kidney (HEK) cells, Semliki Forest Virus system, membrane preparations
T1 sequence (P21554 whole entry): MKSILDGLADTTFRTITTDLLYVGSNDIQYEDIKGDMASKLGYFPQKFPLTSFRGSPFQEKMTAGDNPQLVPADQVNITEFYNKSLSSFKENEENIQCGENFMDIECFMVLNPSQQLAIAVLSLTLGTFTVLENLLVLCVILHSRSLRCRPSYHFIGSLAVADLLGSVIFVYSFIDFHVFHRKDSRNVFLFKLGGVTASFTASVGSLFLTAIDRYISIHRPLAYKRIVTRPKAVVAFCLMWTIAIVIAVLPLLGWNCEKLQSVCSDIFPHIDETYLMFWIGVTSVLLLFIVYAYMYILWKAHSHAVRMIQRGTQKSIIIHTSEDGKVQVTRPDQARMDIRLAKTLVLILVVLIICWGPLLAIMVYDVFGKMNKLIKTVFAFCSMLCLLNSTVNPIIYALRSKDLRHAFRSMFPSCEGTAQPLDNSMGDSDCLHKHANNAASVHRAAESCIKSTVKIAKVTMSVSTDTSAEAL
Method in brief: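 HEK cell membranes transiently expressing human CB1 (Semliki Forest Virus) incubated with [3H]-CP-55,940 and compound at 10 μM. Bound and free ligand separated by glass-fibre filtration, then scintillation counting. Reported as % inhibition of radioligand binding.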

human CB2 receptor = target: T2, human CB2 receptor (Homo sapiens, UniProt P34972); assay: CB2 receptor affinity ([3H]-CP-55,940 displacement, HEK cell membranes); format: binding; conditions: displacement of radioligand [3H]-CP-55,940
T2 construct: expressed in transfected cells; host or cells: human embryonic kidney (HEK) cells, Semliki Forest Virus system, membrane preparations
T2 sequence (P34972 whole entry): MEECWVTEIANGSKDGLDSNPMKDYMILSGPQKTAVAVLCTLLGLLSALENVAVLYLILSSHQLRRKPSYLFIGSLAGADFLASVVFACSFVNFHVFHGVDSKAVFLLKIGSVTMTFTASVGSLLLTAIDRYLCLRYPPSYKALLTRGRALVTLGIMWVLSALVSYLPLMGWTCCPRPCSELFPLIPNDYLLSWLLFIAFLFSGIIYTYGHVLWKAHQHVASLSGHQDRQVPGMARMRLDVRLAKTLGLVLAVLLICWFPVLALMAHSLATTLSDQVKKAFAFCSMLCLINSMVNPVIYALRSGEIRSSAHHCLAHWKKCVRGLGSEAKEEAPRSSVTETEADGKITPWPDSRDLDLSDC
Method in brief: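 Membranes from HEK cells transiently expressing human CB2 via Semliki Forest Virus, incubated with [3H]-CP-55,940 ± compound; bound ligand separated by glass-fiber filtration and counted by scintillation. Reported as % inhibition of radioligand binding at 10 μM compound.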

inhibition at 10 µM (human CB1 receptor)	inhibition at 10 µM (human CB2 receptor)	Compound	EC50 (ABCA1 protein)	% increase of ABCA1 at 3 μM (ABCA1 protein)
-4%	4%	Cc1cc(-c2cc(NC(=O)c3cccnn3)cnc2OCC(F)(F)F)ccc1Cl [Example 62, N-(5-(4-chloro-3-methylphenyl)-6-(2,2,2-trifluoroethoxy)pyridin-3-yl)pyridazine-3-carboxamide]	2390 nM	
5%	-1%	O=C(Nc1cnc(OCC(F)(F)F)c(-c2ccc(Cl)c(F)c2)c1)c1cccnn1 [Example 63, N-(5-(4-chloro-3-fluorophenyl)-6-(2,2,2-trifluoroethoxy)pyridin-3-yl)pyridazine-3-carboxamide]	680 nM	
9%	2%	O=C(Nc1cnc(OCC(F)(F)F)c(-c2ccc(Cl)cc2F)c1)c1cccnn1 [Example 64, N-(5-(4-chloro-2-fluorophenyl)-6-(2,2,2-trifluoroethoxy)pyridin-3-yl)pyridazine-3-carboxamide]	1080 nM	
19%	5%	CCc1ccc(-c2cc(NC(=O)c3cccnn3)cnc2OCC(F)(F)F)cc1 [Example 65, N-(5-(4-ethylphenyl)-6-(2,2,2-trifluoroethoxy)pyridin-3-yl)pyridazine-3-carboxamide]	270 nM	
30%	5%	O=C(Nc1cnc(OCC(F)(F)F)c(-c2ccc(Cl)cc2)c1)c1ccco1 [Example 66, N-(5-(4-chlorophenyl)-6-(2,2,2-trifluoroethoxy)pyridin-3-yl)furan-2-carboxamide]		>45% @ 3 μM
33%	9%	O=C(Nc1cnc(OCC(F)(F)F)c(-c2ccc(Cl)cc2)c1)c1ccoc1 [Example 67, N-(5-(4-chlorophenyl)-6-(2,2,2-trifluoroethoxy)pyridin-3-yl)furan-3-carboxamide]		>45% @ 3 μM
26%	4%	Cc1ccc(C(=O)Nc2cnc(OCC(F)(F)F)c(-c3ccc(Cl)cc3)c2)o1 [Example 68, N-(5-(4-chlorophenyl)-6-(2,2,2-trifluoroethoxy)pyridin-3-yl)-5-methylfuran-2-carboxamide]		>45% @ 3 μM
35%	18%	COCCOc1ncc(NC(=O)c2ccccc2)cc1-c1ccc(Cl)c(C)c1 [Example 69, N-(5-(4-chloro-3-methylphenyl)-6-(2-methoxyethoxy)pyridin-3-yl)benzamide]		>45% @ 3 μM
25%	-7%	CN1CCOc2cc(C(=O)Nc3cnc(OCC(F)(F)F)c(-c4ccc(Cl)cc4)c3)cnc21 [Example 72, N-(5-(4-chlorophenyl)-6-(2,2,2-trifluoroethoxy)pyridin-3-yl)-4-methyl-3,4-dihydro-2H-pyrido[3,2-b][1,4]oxazine-7-carboxamide]	780 nM	
13%	22%	Nc1ccc(-c2cc(NC(=O)c3cncc(I)c3)cnc2OCC(F)(F)F)cc1Cl [Example 73, N-(5-(4-amino-3-chlorophenyl)-6-(2,2,2-trifluoroethoxy)pyridin-3-yl)-5-iodonicotinamide]		>45% @ 3 μM
17%	-7%	O=C(Nc1cnc(OCC(F)(F)F)c(-c2ccccc2)c1)c1cccnc1 [Example 74, N-(5-phenyl-6-(2,2,2-trifluoroethoxy)pyridin-3-yl)nicotinamide]		>45% @ 3 μM
31%	5%	O=C(Nc1cnc(OCC(F)(F)F)c(-c2ccc(F)cc2)c1)c1cccnc1 [Example 75, N-(5-(4-fluorophenyl)-6-(2,2,2-trifluoroethoxy)pyridin-3-yl)nicotinamide]		>45% @ 3 μM
1%	5%	O=C(Nc1cnc(OCC(F)(F)F)c(-c2cccc(Cl)c2)c1)c1cccnc1 [Example 76, N-(5-(3-chlorophenyl)-6-(2,2,2-trifluoroethoxy)pyridin-3-yl)nicotinamide]		>45% @ 3 μM
33%	16%	COc1cncc(C(=O)Nc2cnc(OCC(F)(F)F)c(-c3ccc(Cl)cc3)c2)c1 [Example 77, N-(5-(4-chlorophenyl)-6-(2,2,2-trifluoroethoxy)pyridin-3-yl)-5-methoxynicotinamide]	720 nM	
16%	14%	Cc1cc(-c2cc(NC(=O)c3cnc4c(c3)OCCN4C)cnc2OCC(F)(F)F)ccc1Cl [Example 80, N-(5-(4-chloro-3-methylphenyl)-6-(2,2,2-trifluoroethoxy)pyridin-3-yl)-4-methyl-3,4-dihydro-2H-pyrido[3,2-b][1,4]oxazine-7-carboxamide]		>45% @ 3 μM
21%	5%	CN1CCOc2cc(C(=O)Nc3cnc(OCC(F)(F)F)c(-c4ccc(Cl)c(F)c4)c3)cnc21 [Example 81, N-(5-(4-chloro-3-fluorophenyl)-6-(2,2,2-trifluoroethoxy)pyridin-3-yl)-4-methyl-3,4-dihydro-2H-pyrido[3,2-b][1,4]oxazine-7-carboxamide]	2560 nM	
23%	3%	CNC(=O)c1ccc(C(=O)Nc2cnc(OCC(F)(F)F)c(-c3ccc(Cl)cc3)c2)cn1 [Example 84, N5-(5-(4-chlorophenyl)-6-(2,2,2-trifluoroethoxy)pyridin-3-yl)-N2-methylpyridine-2,5-dicarboxamide]		>45% @ 3 μM
38%	5%	O=C(Nc1cnc(OCC(F)(F)F)c(-c2ccc(Cl)cc2)c1)c1cncc(Br)c1 [Example 85, 5-bromo-N-(5-(4-chlorophenyl)-6-(2,2,2-trifluoroethoxy)pyridin-3-yl)nicotinamide]		>45% @ 3 μM

Compound	inhibition at 10 µM (human CB1 receptor)	inhibition at 10 µM (human CB2 receptor)	EC50 (ABCA1 protein)	% increase of ABCA1 at 3 μM (ABCA1 protein)
O=C(Nc1cnc(OC2CCC2)c(-c2ccc(Cl)cc2)c1)c1cnccn1 [Example 78, N-(5-(4-chlorophenyl)-6-cyclobutoxypyridin-3-yl)pyrazine-2-carboxamide]	25%	26%		>45% @ 3 μM
O=C(Nc1cnc(OC2CCC2)c(-c2ccc(Cl)cc2)c1)c1cccnc1 [Example 79, N-(5-(4-chlorophenyl)-6-cyclobutoxypyridin-3-yl)nicotinamide]	29%	13%		>45% @ 3 μM
Cc1ocnc1C(=O)Nc1cnc(OC2CCC2)c(-c2ccc(Cl)cc2)c1 [Example 82, 5-Methyl-oxazole-4-carboxylic acid[5-(4-chloro-phenyl)-6-cyclobutoxy-pyridin-3-yl]-amide]	29%	37%		>45% @ 3 μM
Cc1cncc(C(=O)Nc2cnc(OC3CCC3)c(-c3ccc(Cl)cc3)c2)c1 [Example 83, N-[5-(4-Chloro-phenyl)-6-cyclobutoxy-pyridin-3-yl]-5-methyl-nicotinamide]	27%	-5%		>45% @ 3 μM
